ChEMBL document CHEMBL1133826, “Design, synthesis, and biological activity of diiminoisoindolines as complement component 3a antagonists” (Bioorg Med Chem Lett, 2001)

Columns and labels:
[1] = target: T1, C3a anaphylatoxin chemotactic receptor (Homo sapiens, UniProt Q16581); assay: Concentration required to inhibit complement component 3a (C3a) binding to C3a receptor in human neutrophil based assay; Not active at 25 uM
T1 sequence (Q16581 whole entry): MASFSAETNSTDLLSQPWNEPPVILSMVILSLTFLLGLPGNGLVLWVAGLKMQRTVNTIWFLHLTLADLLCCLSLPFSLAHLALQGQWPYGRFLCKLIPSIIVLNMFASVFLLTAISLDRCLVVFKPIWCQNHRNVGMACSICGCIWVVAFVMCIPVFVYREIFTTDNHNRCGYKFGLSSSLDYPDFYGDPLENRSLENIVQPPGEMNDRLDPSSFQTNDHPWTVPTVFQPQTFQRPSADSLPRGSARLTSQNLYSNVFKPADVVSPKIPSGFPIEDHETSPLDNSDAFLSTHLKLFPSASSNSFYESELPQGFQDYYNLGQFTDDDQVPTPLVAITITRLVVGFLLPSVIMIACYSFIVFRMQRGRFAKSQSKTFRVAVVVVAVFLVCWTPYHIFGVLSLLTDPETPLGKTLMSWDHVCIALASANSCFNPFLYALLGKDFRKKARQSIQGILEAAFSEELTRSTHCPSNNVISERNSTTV

[2] = target: T1, C3a anaphylatoxin chemotactic receptor; assay: Inhibition of complement component 3a (C3a) binding to C3a receptor in human neutrophil based assay
Homo sapiens [3] = species: Homo sapiens; assay: Concentration required for 50% inhibition of binding against C3a receptor induced calcium mobilization in human neutrophil; assay type: functional, organism-based
Homo sapiens [4] = species: Homo sapiens; assay: Percent inhibition against C3a receptor induced chemotaxis in human eosinophils at the dose of 25 uM; assay type: functional
Homo sapiens [5] = species: Homo sapiens; assay: Percent inhibition against C3a receptor induced calcium mobilization in human neutrophil at the dose of 25 uM; assay type: functional
Homo sapiens [6] = species: Homo sapiens; assay: Inhibitory concentration against C3a receptor induced chemotaxis in human eosinophils; assay type: functional, organism-based
Rattus norvegicus [7] = assay: Percent inhibition against C3a receptor induced wheal formation in rat at the dose of 15 mg/Kg administered orally
Rattus norvegicus [8] = assay: Percent inhibition against C3a receptor induced wheal formation in rat at the dose of 30 mg/Kg administered orally
Rattus norvegicus [9] = assay: Percent inhibition against C3a receptor induced wheal formation in rat at the dose of 30 mg/Kg administered intraperitoneally
Homo sapiens [10] = species: Homo sapiens; assay: Inhibitory concentration against C3a receptor induced chemotaxis in human eosinophils; Not active at 25 uM; assay type: functional, organism-based

For `Cc1ccc(C/N=C2\N=C(NCc3ccc(C)cc3)c3cc([N+](=O)[O-])ccc32)cc1`, the IC50 [1] was “Not Active”.
`COc1ccc2c(c1)/C(=N/CCc1ccc(C)cc1)N=C2NCCc1ccc(C)cc1` showed an IC50 [2] of 12.6 µM, an IC50 (Homo sapiens [3]) of 3.8 µM and an inhibition at 25 µM (Homo sapiens [4]) of 37%.
For `CCCOc1ccc2c(c1)/C(=N/CCc1ccc(F)cc1)N=C2NCCc1ccc(F)cc1`, the IC50 [2] was 5.97 µM, the inhibition at 25 µM (Homo sapiens [5]) was 79% and the IC50 (Homo sapiens [6]) was 6.1 µM.
Work on `Fc1ccc(CC/N=C2\N=C(NCCc3ccc(F)cc3)c3ccccc32)cc1` yielded an IC50 [2] of 11.4 µM, an IC50 (Homo sapiens [6]) of 6.5 µM and an IC50 (Homo sapiens [3]) of 3.1 µM. The inhibition (Rattus norvegicus [7]) was 44%, the inhibition (Rattus norvegicus [8]) was 72% and the inhibition (Rattus norvegicus [9]) was 73%.
In the case of `N=C1N=C(NCCc2ccc(Cl)cc2)c2ccccc21`, the IC50 [1] is reported as “Not Active”.
In the case of `Fc1ccc(CC/N=C2\N=C(NCCc3ccc(F)cc3)c3nccnc32)cc1`, the IC50 [1] is reported as “Not Active”.
For `Cc1ccc(CC/N=C2/CCC(NCCc3ccc(C)cc3)=N2)cc1`, the IC50 [1] was “Not Active”.
Work on `CC(C/N=C1\N=C(NCC(C)c2ccc(Cl)cc2)c2ccccc21)c1ccc(Cl)cc1` (stereo unspecified) yielded an IC50 [2] of 5.9 µM and an inhibition at 25 µM (Homo sapiens [5]) of 69%.
`CC(=O)Nc1ccc2c(c1)/C(=N\Cc1ccc(C)cc1)N=C2NCc1ccc(C)cc1` gave an IC50 [2] of 32 µM.
In the case of `Fc1ccc(CC/N=C2\N=C(NCCc3ccc(F)cc3)c3cnccc32)cc1`, the IC50 [2] is reported as 13.4 µM.
`Clc1ccc(CC/N=C2\N=C(NCCc3ccc(Cl)cc3)c3ccccc32)cc1` was tested, and the IC50 [2] was 7.16 µM, the IC50 (Homo sapiens [6]) was 10.2 µM and the IC50 (Homo sapiens [3]) was 8.2 µM. For the same compound, the inhibition (Rattus norvegicus [8]) was 63% and the inhibition (Rattus norvegicus [9]) was 26%.
Compound `CC(C)NC1=N/C(=N\CCc2ccc(Cl)cc2)c2ccccc21` has an IC50 [2] of 8.45 µM.
Compound `CN(C)CCOc1ccc2c(c1)/C(=N/CCc1ccc(F)cc1)N=C2NCCc1ccc(F)cc1` has an IC50 [2] of 5.36 µM and an IC50 (Homo sapiens [6]) of 7.8 µM.
For `CC(C)/N=C1\N=C(NC(C)C)c2ccccc21`, the IC50 [1] was “Not Active”.
For `Clc1cccc(CC/N=C2\N=C(NCCc3cccc(Cl)c3)c3ccccc32)c1`, the IC50 [2] was 7.48 µM, the IC50 (Homo sapiens [10]) was “Not Active” and the IC50 (Homo sapiens [3]) was 5.4 µM. For the same compound, the inhibition (Rattus norvegicus [7]) was 28%, the inhibition (Rattus norvegicus [8]) was 55% and the inhibition (Rattus norvegicus [9]) was 72%.
With `Cc1ccc(CC/N=C2\N=C(NCCc3ccc(C)cc3)c3ccccc32)cc1` the IC50 [2] was 6.14 µM, the IC50 (Homo sapiens [6]) was 6.5 µM and the IC50 (Homo sapiens [3]) was 3.3 µM. The inhibition (Rattus norvegicus [8]) was 67% and the inhibition (Rattus norvegicus [9]) was 38%.
`Cc1ccc(CC/N=C2\N=C(NCCc3ccc(C)cc3)c3cc(Cl)c(Cl)cc32)cc1` was tested, and the IC50 [2] was 48 µM.
`Cc1ccc(C/N=C2\N=C(NCc3ccc(C)cc3)c3ccccc32)cc1` was tested, and the IC50 [2] was 1.7 µM, the IC50 (Homo sapiens [3]) was 2 µM and the inhibition (Rattus norvegicus [7]) was 30%. For the same compound, the inhibition (Rattus norvegicus [8]) was 61% and the inhibition (Rattus norvegicus [9]) was 64%.
